Counter-ions that a name gives are not always drawn.
What was measured:
α-adrenergic receptor = experiment: α-Adrenergic receptor blocking activity in vitro, isolated rabbit aortic strip preparation, norepinephrine as agonist; format: cell-based
Protocol: (§1) The following Example is illustrative of the α and β-adrenergic blocking activity and the direct spasmolytic activity for the compounds of this invention.
α-Adrenergic receptor blocking activity is determined in vitro by performing cumulative dose-response experiments in the isolated rabbit aortic strip preparation using norepinephrine as the agonist. The contractile response of the rabbit strip preparation in the presence of logarithmically increasing concentrations of the compounds being tested are expressed as percent of the maximal attainable response. Relative antagonistic potency is expressed as a pA2 value.

β-adrenergic receptor = molecular target: T1, β-adrenergic receptor (Cavia porcellus, UniProt H0W3H1); experiment: β-Adrenergic receptor blocking activity in vitro, isolated guinea pig atria preparation, isoproterenol as agonist; format: cell-based; conditions: isolated guinea pig atria (increase in rate), read-out: pA2 β (converted)
T1 construct: isolated guinea pig atria preparation; from tissue; host or cells: guinea pig atria
T1 sequence (H0W3H1 1-470): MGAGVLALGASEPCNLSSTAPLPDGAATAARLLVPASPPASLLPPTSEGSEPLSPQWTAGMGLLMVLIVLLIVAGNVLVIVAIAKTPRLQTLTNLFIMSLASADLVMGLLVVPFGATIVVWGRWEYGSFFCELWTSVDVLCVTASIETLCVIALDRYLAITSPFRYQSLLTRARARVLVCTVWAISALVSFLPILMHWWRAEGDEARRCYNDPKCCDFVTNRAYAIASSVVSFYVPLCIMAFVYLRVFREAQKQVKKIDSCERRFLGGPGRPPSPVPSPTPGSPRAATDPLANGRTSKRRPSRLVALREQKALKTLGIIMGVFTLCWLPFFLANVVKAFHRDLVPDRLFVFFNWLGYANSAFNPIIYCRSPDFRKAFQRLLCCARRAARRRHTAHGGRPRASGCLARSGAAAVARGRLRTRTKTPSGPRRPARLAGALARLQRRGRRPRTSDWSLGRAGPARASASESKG
Protocol: as §1
(§2) β-Adrenergic receptor blocking activity is determined in vitro by performing cumulative dose-response experiments in the isolated guinea pig atria preparation using isoproterenol as the agonist. The response (increase in rate) of the guinea pig atria preparation in the presence of logarithmically increasing concentrations of the compounds being tested are expressed as percent of the maximal attainable response. Relative antagonistic potency is expressed as a pA2 value, as defined above.

[1] = tested on: isolated guinea pig ileum preparation; experiment: Direct spasmolytic activity in vitro, isolated guinea pig ileum preparation, barium chloride as agonist; format: cell-based
Protocol: as §1
as §2, with “Direct spasmolytic” for “β-Adrenergic receptor blocking”, “dose response” for “dose-response”, “ileum” for “atria”, “barium chloride” for “isoproterenol”, “The contractile” for “The”, “response” for “response (increase in rate)”

[2] = tested on: spontaneously hypertensive rats (SHR); experiment: Antihypertensive activity in spontaneously hypertensive rats (SHR), systolic blood pressure; format: in vivo, rat (SHR, Okomoto-Aoki strain); conditions: oral 50 mg/kg
Protocol: The following Example illustrates the antihypertensive activity for the compounds of this invention. Antihypertensive activity is determined in spontaneously hypertensive rats (SHR) of the Okomoto-Aoki strain. Systolic blood pressure of the SHR is measured from the caudal artery by means of an indirect method utilizing a photocell transducer/tail cuff occluder system. Time response relationships are determined for each compound following an oral dose of 50 mg/kg. Data are expressed as mm of Hg decrease from control values. Statistical significance is determined using a 2 tailed "t" test comparing drug treatment response values to those obtained from concurrent vehicle treated animals.

COC(=O)c1cc(C(O)CN2CCC(n3c(=O)[nH]c4ccccc43)CC2)ccc1O (stereo not drawn) [Compound 1, methyl 2-hydroxy-5-[1-hydroxy-2-[4-(2-oxo-1-benzimidazolinyl)piperidino]ethyl]benzoate hydrochloride]
pA2 α (α-adrenergic receptor): 6.94
Kb (β-adrenergic receptor): 1.95 µM
pA2 BaCl2 (Direct Spasmolytic Activity) [1]: 5.90

NC(=O)c1cc(C(O)CN2CCC(n3c(=O)[nH]c4ccccc43)CC2)ccc1O (stereo not drawn) [Compound 2, 2-hydroxy-5-[1-hydroxy-2-[4-(2-oxo-1-benzimidazolinyl)piperidino]ethyl]benzamide hydrochloride monohydrate]
pA2 α (α-adrenergic receptor): 6.70
Kb (β-adrenergic receptor): 3.55 µM
pA2 BaCl2 (Direct Spasmolytic Activity) [1]: < 4.20

CCNC(=O)c1cc(C(O)CN2CCC(n3c(=O)[nH]c4ccccc43)CC2)ccc1O (stereo not drawn) [Compound 3, 2-hydroxy-5-[1-hydroxy-2-[4-(2-oxo-1-benzimidazolinyl)piperidino]ethyl]-N-ethylbenzamide hydrochloride]
pA2 α (α-adrenergic receptor): 6.63
Kb (β-adrenergic receptor): > 4.17 µM
pA2 BaCl2 (Direct Spasmolytic Activity) [1]: 5.16
lowers blood pressure (decrease from control values) ([2]; after 1 hour): 22 mm Hg
lowers blood pressure (decrease from control values) ([2]; after 4 hours): 51 mm Hg

Cc1ccc(N(CC2=NCCN2)c2cccc(O)c2)cc1 [phentolamine, reference compound]
Kb (β-adrenergic receptor): > 10 µM
